How the values were obtained:
[1] = tested on: Wnt stimulated TCF transcriptional activity; experiment: Tankyrase 1 Assay (Example 72): HEK293-TS 112 TCF reporter cell line; format: cell-based; conditions: footnote 2: Tankyrase 1 inhibition assay in Example 72 (TOPbrite luciferase reporter, Wnt3A 0.5 ug/mL, 16 hours); read-out: TNKS1 IC50
Description: Inhibition of the Wnt stimulated TCF transcriptional activity by tankyrase inhibitors was determined utilizing a HEK293-TS 112 TCF reporter cell line. A Wnt-responsive luciferase reporter named TOPbrite was constructed by cloning the enhancer element of Super8xTOPFlash containing eight TCF/LEF binding sites into the pGL4.28 vector (Promega) upstream of the minimal promoter element, and selecting for hygromycin B resistance (50 μg/ml). Cells were seeded into 384-well plates in the presence of 0.5 ug/mL of Wnt3A at a density of 20,000 cells per well in 25 ul of F:12 DMEM media supplemented with 10% FBS and 2 mM Glutamax. Cells seeded without the addition of Wnt3A were used as background signal. Compounds of various concentrations were added to cells and incubated at 37 degrees with 5% CO2 for 16 hours. The assay was terminated with the addition of Promega Dual Glo kit per manufacturer's instructions. A ratio of TOPbrite Firefly Luciferase and SV40 Renillla Luciferase was calculated and the background from the neutral wells was subtracted yielding the final normalized measurement of TCF transcriptional activity. Compound IC50s were determined by four-parameter curve fitting using GeneData software.

[2] = biological target: T1, PARP1 (His6-PARP1, full length) (Homo sapiens, UniProt P09874); experiment: TR-FRET Binding Assay (Example 71), PARP1; conditions: TR-FRET assay of Example 71 with His6-PARP1
T1 construct: His6-PARP1 (full length) can be substituted for His6-TNKS 1
T1 sequence (P09874 whole entry, species assumed): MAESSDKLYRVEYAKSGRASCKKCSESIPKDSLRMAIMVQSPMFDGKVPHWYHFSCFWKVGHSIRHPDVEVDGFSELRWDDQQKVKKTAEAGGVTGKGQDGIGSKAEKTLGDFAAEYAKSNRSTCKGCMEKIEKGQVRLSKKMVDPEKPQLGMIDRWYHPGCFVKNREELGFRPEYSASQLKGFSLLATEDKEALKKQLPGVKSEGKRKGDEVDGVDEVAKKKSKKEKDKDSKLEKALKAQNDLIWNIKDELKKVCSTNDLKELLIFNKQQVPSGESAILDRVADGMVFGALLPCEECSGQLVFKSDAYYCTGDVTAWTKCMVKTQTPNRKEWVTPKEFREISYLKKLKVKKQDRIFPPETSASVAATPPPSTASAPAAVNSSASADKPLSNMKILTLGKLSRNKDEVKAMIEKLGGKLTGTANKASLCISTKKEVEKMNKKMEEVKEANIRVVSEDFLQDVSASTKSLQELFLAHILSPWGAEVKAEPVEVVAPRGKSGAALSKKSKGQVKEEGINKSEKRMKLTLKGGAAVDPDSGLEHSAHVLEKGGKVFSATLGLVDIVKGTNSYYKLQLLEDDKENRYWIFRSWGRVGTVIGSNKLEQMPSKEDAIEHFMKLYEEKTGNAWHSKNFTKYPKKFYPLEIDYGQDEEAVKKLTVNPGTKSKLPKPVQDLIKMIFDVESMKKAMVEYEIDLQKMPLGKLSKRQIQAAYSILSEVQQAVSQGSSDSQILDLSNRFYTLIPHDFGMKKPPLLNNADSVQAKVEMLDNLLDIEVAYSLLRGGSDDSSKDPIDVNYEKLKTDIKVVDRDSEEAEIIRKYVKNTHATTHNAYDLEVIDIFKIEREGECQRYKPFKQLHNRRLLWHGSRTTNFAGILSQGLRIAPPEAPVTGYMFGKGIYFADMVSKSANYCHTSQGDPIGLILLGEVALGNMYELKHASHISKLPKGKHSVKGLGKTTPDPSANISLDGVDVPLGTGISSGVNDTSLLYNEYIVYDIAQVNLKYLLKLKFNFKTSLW
Method in brief: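 Competition binding: test compound displaces biotin-IWR2 from His6-PARP1 (full length), read by Eu-streptavidin/APC-anti-His6 TR-FRET. PARP1 30 min at 26°C with compound and probe in Tris pH 7.4 buffer with DTT, BSA and NP-40, then detection reagents for 60 min. Excitation 330 nm, emission 615 and 665 nm; […].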

Tankyrase 1 (TNKS1) = biological target: T2, Tankyrase 1 (TNKS1) (Homo sapiens, UniProt O95271); experiment: μHTS-TNKS-IWR2 TR-FRET Binding Assay (Example 71), TNKS1
T2 construct: His6-TNKS1, MW=28.2 KDa (construct: 1088-1327, 1266M)
T2 sequence (O95271 1088-1327): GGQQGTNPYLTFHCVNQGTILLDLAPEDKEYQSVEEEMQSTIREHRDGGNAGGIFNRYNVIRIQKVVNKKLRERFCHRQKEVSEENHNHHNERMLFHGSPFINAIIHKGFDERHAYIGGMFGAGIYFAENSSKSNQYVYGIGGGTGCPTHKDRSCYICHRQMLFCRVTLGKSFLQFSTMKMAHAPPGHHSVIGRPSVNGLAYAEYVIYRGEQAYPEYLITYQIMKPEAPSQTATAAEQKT

tankyrase 2 (His6-TNKS2) = biological target: T3, tankyrase 2 (His6-TNKS2) (Homo sapiens, UniProt Q9H2K2); experiment: μHTS-TNKS-IWR2 TR-FRET Binding Assay (Example 71), TNKS2; conditions: footnote 1: Tankyrase 1 and 2 inhibition assay in Example 71 (TR-FRET)
T3 construct: His6-tankyrase 2 (construct: 934-1166) (His6-TNKS2)
T3 sequence (Q9H2K2 934-1166): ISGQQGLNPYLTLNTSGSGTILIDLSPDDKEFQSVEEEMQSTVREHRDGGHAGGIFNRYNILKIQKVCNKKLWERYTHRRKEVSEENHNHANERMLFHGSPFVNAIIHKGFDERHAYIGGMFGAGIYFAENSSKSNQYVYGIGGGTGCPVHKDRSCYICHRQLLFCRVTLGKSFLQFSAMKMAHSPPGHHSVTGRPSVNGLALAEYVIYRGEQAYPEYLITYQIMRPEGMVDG

Row | SMILES | IC50 [1] [nM] | other results
1 | Cc1cccc2c(=O)[nH]c3c(c12)COC(C1CCN(S(=O)(=O)C2CCOCC2)CC1)C3 (stereo not shown) [Compound I-74, 10-methyl-3-(1-tetrahydropyran-4-ylsulfonyl-4-piperidyl)-1 3 4 5-tetrahydropyrano[4,3-c]isoquinolin-6-one] | 9.5 | 
2 | Cc1cccc2c(=O)[nH]c3c(c12)COC(CC(C)O)C3 (stereo not shown) [Compound I-76, 3-(2-hydroxypropyl)-10-methyl-1 3 4 5-tetrahydropyrano[4,3-c]isoquinolin-6-one] | 15.9 | 
3 | Cc1cccc2c(=O)[nH]c3c(c12)COC(C(C)(C)CO)C3 (racemic) [Compound I-1, rac-2-(2-Hydroxy-1,1-dimethyl-ethyl)-5-methyl-1,2,4,10-tetrahydro-3-oxa-10-aza-phenanthren-9-one] | 10.6 | IC50 [2]: 91.8 nM
4 | Cc1cccc2c(=O)[nH]c3c(c12)COC(C1CCN(C2CCOCC2)CC1)C3 (stereo not shown) [Compound I-72, 10-Methyl-3-(1-tetrahydropyran-4-yl-4-piperidyl)-1 3 4 5-tetrahydropyrano[4,3-c]isoquinolin-6-one] | 92.4 | 
5 | CC(C)C1Cc2[nH]c(=O)c3cccc(F)c3c2CO1 (stereo not shown) [Compound I-69, 10-Fluoro-3-isopropyl-1 3 4 5-tetrahydropyrano[4,3-c]isoquinolin-6-one] | 11.2 | 
6 | COCCN1CCC(C2Cc3[nH]c(=O)c4cccc(C)c4c3CO2)CC1 (stereo not shown) [Compound I-73, 3-[1-(2-methoxyethyl)-4-piperidyl]-10-methyl-1 3 4 5-tetrahydropyrano[4,3-c]isoquinolin-6-one] | 29.4 | 
7 | CC(C)C1Cc2[nH]c(=O)c3cccc(Cl)c3c2CO1 (stereo not shown) [Compound I-70, 10-chloro-3-isopropyl-1 3 4 5-tetrahydropyrano[4,3-c]isoquinolin-6-one] | 12.9 | 
8 | Cc1cccc2c(=O)[nH]c3c(c12)COC(C1CCN(C2COC2)CC1)C3 (stereo not shown) [Compound I-71, 10-methyl-3-[1-(oxetan-3-yl)-4-piperidyl]-1 3 4 5-tetrahydropyrano[4,3-c]isoquinolin-6-one] | 2.01 | 
9 | Cc1cccc2c(=O)[nH]c3c(c12)COC(C1CCN(CCO)CC1)C3 (stereo not shown) [Compound I-75, 3-[1-(2-hydroxyethyl)-4-piperidyl]-10-methyl-1 3 4 5-tetrahydropyrano[4,3-c]isoquinolin-6-one] | 27.2 | 
10 | O=c1[nH]c2c(c3cnccc13)COC(C1CCCC1)C2 (racemic) [Compound I-31, rac-7-Cyclopentyl-5,7,8,9-tetrahydro-6-oxa-3,9-diaza-phenanthren-10-one] |  | IC50 (Tankyrase 1 (TNKS1)): 70.8 nM; IC50 [2]: 1790 nM; IC50 (tankyrase 2 (His6-TNKS2)): 89.1 nM

— patent US20140121231A1, “PYRANOPYRIDONE INHIBITORS OF TANKYRASE” (Hoffmann-La Roche, Inc., priority 2012, published 2014)
